ChEMBL document CHEMBL2157992, “SAR studies of epoxycurcuphenol derivatives on leukemia CT-CD4 cells” (2012)

Legend:
Assay type in all cases: functional
Jurkat [1] = test: Antiproliferative activity against human Jurkat cells assessed as parent population at 10 uM after 24 hrs using CFSE staining by flow cytometry (reference value: 23.70 %)
Jurkat [2] = test: Antiproliferative activity against human Jurkat cells assessed as proliferation index of >/= 3rd generation cells at 10 uM after 24 hrs using CFSE staining by flow cytometry relative to original parent cells
Jurkat [3] = test: Antiproliferative activity against human Jurkat cells assessed as proliferation index at 10 uM after 24 hrs using CFSE staining by flow cytometry relative to original parent cells (reference value: 2.48)
Jurkat [4] = test: Antiproliferative activity against human Jurkat cells assessed as 2nd generation cell population at 10 uM after 24 hrs using CFSE staining by flow cytometry relative to control
Jurkat [5] = test: Antiproliferative activity against human Jurkat cells assessed as non proliferative fraction at 10 uM after 24 hrs using CFSE staining by flow cytometry (reference value: 0.59)
Jurkat [6] = test: Antiproliferative activity against human Jurkat cells assessed as 5th generation cell population at 10 uM after 24 hrs using CFSE staining by flow cytometry (reference value: 18.43 %)
Jurkat [7] = test: Antiproliferative activity against human Jurkat cells assessed as 4th generation cell population at 10 uM after 24 hrs using CFSE staining by flow cytometry (reference value: 25. 99 %)
Jurkat [8] = test: Inhibition of cell division in human Jurkat cells at 1 uM
Jurkat [9] = test: Antiproliferative activity against human Jurkat cells assessed as 3rd generation cell population at 10 uM after 24 hrs using CFSE staining by flow cytometry relative to control

SMILES	Activity (Jurkat [1]) [%]	Ratio (Jurkat [2])	Ratio (Jurkat [3])	Activity (Jurkat [4]) [%]	Ratio (Jurkat [5])	Activity (Jurkat [6]) [%]	Activity (Jurkat [7]) [%]	inhibition at 1 µM (Jurkat [8]) [%]	Activity (Jurkat [9]) [%]
CC1(C)OC1CCCc1cc(O)ccc1O (stereo unspecified)	84.84	4.76	1.11	7.31	0.94				
C[C@@H](CC[C@H]1OC1(C)C)c1cc(O)ccc1O (relative stereo)	6.02	10.81	6.47		0.39	64.37			
Cc1ccc([C@@H](C)CC[C@H]2OC2(C)C)c(O)c1 (relative stereo)	8.71	9.67	4.77		0.41	38.84			
Cc1ccc([C@H](C)CC[C@H]2OC2(C)C)c(O)c1 (relative stereo)	8.09	10.46	5.2		0.42	49.3			
CC[C@@H](CC[C@H]1OC1(C)C)c1ccccc1O (relative stereo)	11.75	8.5	4.1		0.48	29.37			
CC[C@H](CC[C@H]1OC1(C)C)c1ccccc1O (relative stereo)	10.46	9.29	4.38		0.46	33.67			
Cc1ccc([C@H](C)CC[C@@H]2CO2)c(O)c1 (relative stereo)	6.23	10.07	5.86		0.37	47.87			
Cc1ccc([C@@H](C)CC[C@@H]2CO2)c(O)c1 (relative stereo)	5.27	9.25	5.71		0.3	40.06			
CC[C@@H](CC[C@@H]1CO1)c1cc(O)ccc1O (relative stereo)	7.95	10.11	5.06		0.4	48.54			
CC[C@H](CC[C@@H]1CO1)c1cc(O)ccc1O (relative stereo)	8.46	10.24	5.01		0.42	47.67			
CC[C@H](CC[C@@H](C)O)c1ccccc1O (relative stereo)	5.19	10.18	6.11		0.32	46.79			
Cc1cc(O)c([C@H](C)CC[C@H]2OC2(C)C)cc1O (relative stereo)	53.81	8.05	1.62		0.87		13.9	100	
Cc1cc(O)c([C@@H](C)CC[C@H]2OC2(C)C)cc1O (relative stereo)	67.44	6.14	1.36		0.92			100	17.04
CC[C@H](CC[C@H]1OC1(C)C)c1cc(O)ccc1O (relative stereo)	21.49	6.16	2.73		0.59	11.8	13.9		35.78
CC[C@@H](CC[C@H]1OC1(C)C)c1cc(O)ccc1O (relative stereo)	20.3	7.93	3.04		0.62	18.48	20.47		21.3
Cc1cc(O)c([C@H](C)CC[C@@H]2CO2)cc1O (relative stereo)	46.39	7.64	1.85		0.86	18.91			
Cc1cc(O)c([C@@H](C)CC[C@@H]2CO2)cc1O (relative stereo)	89.59	5.7	1.09		0.98				6.73
